{
  "source": "paper PMC8362065",
  "about": "“Easily Available, Amphiphilic Diiron Cyclopentadienyl Complexes Exhibit in Vitro Anticancer Activity in 2D and 3D Human Cancer Cells through Redox Modulation Triggered by CO Release” (Chemistry (Weinheim an Der Bergstrasse, Germany), 2021)",
  "key": {"[1]": {"test_system": "PSN‐1 pancreatic cancer cells", "experiment": "Intracellular CO release, fluorescent CO probe", "format": "cell-based, human", "conditions": "PSN‐1 cells, 20 μM, 30 min, fluorescent probe (Figure 4B)", "experimental": "(§1) Figure 4 Intracellular detection of iron and carbon monoxide. A) Cellular uptake in PSN‐1 and HEK293 cells; cells were incubated with 50 μM of complexes for 24 h, and the cellular iron content was detected by GFAAS analysis. B) Intracellular CO levels were determined by using a fluorescent probe (BioTracker Carbon Monoxide Probe 1 Live Cell Dye®, Merck, Germany) after 30 min of treatment of PSN‐1 or HEK293 cells with 20 μM [2C]CF3SO3 and [2D]CF3SO3, or 20 μM CORM‐401 as positive control. ** P<0.01, * P<0.05.\n(§2) Additional studies were conducted in order to elucidate the mode of action underlying the cell killing effect of the newly synthesized diiron complexes in cancer cells. In particular, based on the evidence of their tendency to slowly release CO in aqueous media (see section on solubility, partition coefficient, stability in aqueous media), we evaluated the ability of the most performant complexes [2C]CF3SO3 and [2D]CF3SO3 to release carbon monoxide inside PSN‐1 pancreatic cancer cells and HEK293 noncancer cells. A fluorometric test was conducted over a short time interval (30 min) by means of a CO sensing dye (Figure 4B). […] The relatively fast release of carbon monoxide within the cell might be associated to the presence of a consistent amount and variety of biological substrates, which can quicken the formation of CO substitution diiron products. As a matter of fact, it is well documented that [2E–F]CF3SO3 are susceptible to replacement of one terminal CO ligand by suitable C‐, P‐, S‐ and N‐donors to give adducts of general formula [Fe2Cp2(CO)(L)(μ‐CO){μ‐CNR(Me)}]^0/+.[[15b], [16a], [20]] Although the nature of L in the cell context is far from being clarified, it is reasonable to speculate that CO release is readily operative via such substitution pathway. However, an acceleration of the route leading to the extensive decomposition of the diiron scaffold (elimination of three COs per complex), as observed in aqueous media, might also contribute.\n(§3) Intracellular CO release. PSN‐1 cell (1×10^4) were seeded in 96‐well plates. After 24 h, cells were treated with 20 μM of tested complexes or CORM‐401 (Merck) for […] at 37 °C and followed by 30 min incubation with a fluorescent probe BioTracker Carbon Monoxide Probe 1 Live Cell Dye® (Merck). The intracellular fluorescence, indicative of CO accumulation in cells, was quantified using a VICTOR X3 (PerkinElmer) plate reader."}, "HEK293 noncancer cells": {"test_system": "HEK293 noncancer cells", "experiment": "Intracellular CO release, fluorescent CO probe", "format": "cell-based, human", "conditions": "20 μM, 30 min, fluorescent probe (Figure 4B)", "experimental": "as §1, §2, §3"}, "PSN‐1 cells [2]": {"test_system": "PSN‐1 cells", "experiment": "Mitochondrial membrane potential", "format": "cell-based, human", "conditions": "24 h (Figure 5B)", "text": "(§4) Iron is a redox active metal that can generate ROS in cells via the Fenton reaction, thus inducing cellular damage and ultimately leading to cell death.[40] […] Based on this premises, we evaluated the effects induced by the diiron complexes on the mitochondria activity and the cellular redox environment. More precisely, we investigated the ROS production and the alteration of the mitochondrial membrane potential. […] The time‐dependent ROS basal production is probably associated to more than one phenomenon. First of all, the progressive disruption of the diiron structure leads to the extrusion of the Fe^I centres, which are expected to subsequently convert into Fe^III (in fact, slow precipitation of iron(III) oxides has been recognized from water solution, see above). Otherwise, based on previous voltammetric measurements on [2E–F]CF3SO3,[41] oxidation of iron enclosed in the complex is out of the range of biologically relevant potentials. […]\n(§5) Figure 5 Effects induced by compounds [2C]CF3SO3 and [2D]CF3SO3 at the mitochondrial level. […] The fluorescence of DCF was measured at λ ex=485 nm and λ em=527 nm. […] Fluorescence was estimated at λ ex=490 nm and λ em=590 nm. […]\nMitochondrial membrane potential (ΔΨ). […] Fluorescence intensity was estimated using a VICTOR X3 (PerkinElmer, USA) plate reader at λ ex=490 and λ em=590 nm. […]"}, "PSN‐1 cells [3]": {"test_system": "PSN‐1 cells", "experiment": "ROS production, CM-H2DCFDA fluorescence", "format": "cell-based, human", "conditions": "time-dependent (Figure 5A)", "text": "as §4, with “above).” for “above). Otherwise, based on previous voltammetric measurements on [2E–F]CF3SO3,[41] oxidation of iron enclosed in the complex is out of the range of biologically relevant potentials.”\nas §5\nROS production. The production of ROS was measured in PSN‐1 cells (10^4 per well) grown for 24 h in a 96‐well plate in RPMI medium without phenol red (Merck). […] Fluorescence increase was estimated by using λ ex=485 nm and λ em=527 nm in a VICTOR X3 (PerkinElmer) plate reader. […]"}, "[4]": {"test_system": "TrxR in human pancreatic PSN‐1 cancer cells", "experiment": "TrxR activity in treated cells, NADPH-dependent reduction of DTNB", "format": "cell-based", "conditions": "PSN‐1 cells, 25 μM, 24 h", "experimental": "Figure 6 Effects of compounds [2C]CF3SO3, [2D]CF3SO3 and Auranofin as positive control on TrxR in human pancreatic cells. […] Afterwards, cells were washed twice with PBS and lysed. TrxR activity was tested by measuring the NADPH‐dependent reduction of DTNB. * P<0.05."}},
  "data": [
    {"substance": "[Fe2Cp2(CO)2(μ‐CO){μ‐CNMe(4‐C6H4OMe)}]CF3SO3 [[2D]CF3SO3]", "values": [
      {"measurement": "Intracellular CO levels", "setting": "[1]", "value": "effective in significantly release CO"},
      {"measurement": "Intracellular CO levels", "setting": "HEK293 noncancer cells", "value": "lower levels of CO were detected"},
      {"measurement": "Cells with depolarized mitochondria (mitochondrial membrane potential)", "setting": "PSN‐1 cells [2]", "value": "significant dose‐dependent increase of cells with depolarized mitochondria"},
      {"measurement": "Cellular ROS production", "setting": "PSN‐1 cells [3]", "value": "substantial increase in cellular ROS production"},
      {"measurement": "residual TrxR cellular activity", "setting": "[4]", "value": 39, "unit": "%"}
    ]},
    {"substance": "[Fe2Cp2(CO)2(μ‐CO){μ‐CNMe(C6H11)}]X [[2C]CF3SO3]", "values": [
      {"measurement": "Intracellular CO levels", "setting": "[1]", "value": "effective in significantly release CO"},
      {"measurement": "Intracellular CO levels", "setting": "HEK293 noncancer cells", "value": "lower levels of CO were detected"},
      {"measurement": "Cells with depolarized mitochondria (mitochondrial membrane potential)", "setting": "PSN‐1 cells [2]", "value": "significant dose‐dependent increase of cells with depolarized mitochondria"},
      {"measurement": "Cellular ROS production", "setting": "PSN‐1 cells [3]", "value": "substantial increase in cellular ROS production"},
      {"measurement": "residual TrxR cellular activity", "setting": "[4]", "value": 57, "unit": "%"}
    ]}
  ]
}
